# Values of other authors as cited in US20080057122A1, “Acetaminophen pharmaceutical compositions” (priority 2006, published 2008).
SMILES,time in which peak concentrations are reached (Darvocet-N 100 immediate release tablets) [h],early half-life (in vivo) [h],terminal half-life (in vivo)
CC(=O)Nc1ccc(O)cc1 [acetaminophen],≤ 2,,
CCC(=O)O[C@](Cc1ccccc1)(c1ccccc1)[C@H](C)CN(C)C [propoxyphene],,6 to 12,approximately 20 hours
